Series [1] deals with HL60 MDR human leukemia cells. Kind of series: percent death of HL60 MDR cells (flow cytometry, live versus dead). The series is classed as cell-based. (Flow cytometry measures light scatter and fluorescence of single cells or particles in a stream.)
Description: Dot plots as a function of live versus dead cells. The cells were cultured at a concentration of 0.5 to 1 million cells per ml. Cells were untreated or treated with or 2-deoxy-D-glucose and/or etomoxir and/or antibodies to UCP2 and used at dilutions or concentrations as indicated on the figure. The cells were cultured in the presence or absence of etomoxir at 100 micrograms/ml for 24 hours followed by treatment with antibody as indicated for an additional 24 or 48 hours (i.e. totals of 48 hours or 72 hours respectively). Cells were harvested and analyzed by flow cytometry. Each dot on the dot plot represents one cell. Five thousand cells were assessed for forward scatter (FS), as a function of cell size, versus side scatter (SS), as a function of cellular granularity. The upper elipse represents live cells by these criterion and the lower elipse in each dot plot represents the dead cells.
HL60 MDR human leukemia cells were cultured as described above under “Materials and Methods”. Cells were untreated or treated with etomoxir, with 2-deoxy-D-glucose, or with a combination of etomoxir and 2-deoxy-D-glucose, at concentrations indicated in FIG. 27 for 24 hours. Cells were harvested and analyzed by flow cytometry.
Referring to FIGS. 31 and 32, HL60 MDR cells, cultured as described in Example 21, were untreated or treated with etomoxir, with 2-deoxy-D-glucose, or with a combination of etomoxir and 2-deoxy-D-glucose, at concentrations indicated in FIG. 31 for 48 hours. Cells were harvested and analyzed by flow cytometry.
Referring to FIGS. 35 and 36, HL60 MDR cells, cultured as described in Example 21, were treated with anti-UCP2 antibody and otherwise untreated or treated simultaneously with etomoxir, 2-deoxy-D-glucose, or both, at concentrations indicated in FIG. 35 for 48 hours. Cells were harvested and analyzed by flow cytometry.
The subject of series [2] is RD cells (rhabdomyosarcoma cells-not drug resistant). Kind of series: percent death of RD cells (flow cytometry, live versus dead). In kind it is cell-based.
Description: The cells were cultured at a concentration of 0.5 to 1 million cells per ml. Cells were untreated or treated with or 2-deoxy-D-glucose and/or etomoxir and/or antibodies to UCP2 and used at dilutions or concentrations as indicated on the figure. The cells were cultured in the presence or absence of etomoxir at 100 micrograms/ml for 24 hours followed by treatment with antibody as indicated for an additional 24 or 48 hours (i.e. totals of 48 hours or 72 hours respectively). Cells were harvested and analyzed by flow cytometry. Each dot on the dot plot represents one cell. Five thousand cells were assessed for forward scatter (FS), as a function of cell size, versus side scatter (SS), as a function of cellular granularity. The upper elipse represents live cells by these criterion and the lower elipse in each dot plot represents the dead cells.
Referring to FIGS. 29 and 30, RD cells (rhabdomyosarcoma cells-not drug resistant), cultured as described above under “Materials and Methods” were untreated or treated with etomoxir, with 2-deoxy-D-glucose, or with a combination of etomoxir and 2-deoxy-D-glucose, at concentrations indicated in FIG. 29 for 24 hours. Cells were harvested and analyzed by flow cytometry.
Referring to FIGS. 33 and 34, RD cells, cultured as described in Example 22, were untreated or treated with etomoxir, with 2-deoxy-D-glucose, or with a combination of etomoxir and 2-deoxy-D-glucose, at concentrations indicated in FIG. 33 for 48 hours. Cells were harvested and analyzed by flow cytometry.
Referring to FIGS. 37 and 38, RD cells, cultured as described in Example 22, were treated with anti-UCP2 antibody and otherwise untreated or treated simultaneously with etomoxir, 2-deoxy-D-glucose, or both, at concentrations indicated in FIG. 37 for 48 hours. Cells were harvested and analyzed by flow cytometry.
For another series, the system named is HL60 MDR tumor. Kind of series: tumor volume of HL60 MDR tumor implanted in nude mice. In kind it is in vivo. To be noted: for tumor volume: 200 ug Etomoxir, 2.5 mM 2-Deoxy-D-glucose. An excerpt:
Tumor implantation. Mice were purchased from the Animal Production Program of National Cancer Institute, Frederick, Md. The animals used were Athymic Ncr-nu/nu (strain code 01B74). HL60 MDR cells were harvested and reconstituted at 1 million cells per 100 microliters of phosphate buffered saline. One million tumor cells per injection site were implanted subcutaneously on two sites of the animal's back. Treatments began at exactly seven days post tumor implantation. Tumor size/volume was monitored twice weekly using measurement calipers, with the formula Tumor Volume=π×(short diameter)^2×(long diameter)/6.
Mice experiments with fatty acid metabolism and glucose metabolism inhibitors. Fatty acid metabolism inhibitors were exemplified by etomoxir at 200 micrograms/day. Glucose metabolism inhibitors were exemplified by 2-deoxy-D-glucose at 2.5 mM in 100 microliters daily. The combination was administered daily, etomoxir at 200 micrograms and 2-deoxy-D-glucose at 2.5 mM in 100 microliters. All drugs were administered intra-peritoneally. Fluorouracil, at 20 mg per kilogram mouse, was injected intra-peritoneally once a week
HL60 MDR human leukemia cells were cultured and implanted in nude mice as described above under “Materials and Methods”. The mice were given 200 ug of Etomoxir, 2.5 mM 2-Deoxy-D-glucose, or both 200 ug of Etomoxir and 2.5 mM 2-Deoxy-D-glucose given daily by IP injection. Treatment began exactly one week after tumor implantation.
Mice were purchased from National Cancer Institute, Animal Production Program (Frederick, Md.). The animals used were Athymic Ncr-nu/nu (Strain code 01B74). HL60 MDR cells were harvested and reconstituted at 1 million cells per 100 microliters of phosphate buffered saline. One million tumor cells/per injection site were implanted subcutaneously on two sites of the animal's back. Treatments began at exactly seven days post tumor implantation. Tumor size/volume was monitored twice weekly using measurement calipers with the formula for Tumor Volume=π(short diameter)^2(long diameter)/(divided by )6. […]

A further series relates to B16F1. Kind of series: % death of B16F1 cells treated or not with cerulenin (flow cytometry). The series is classed as cell-based, mouse. To be noted: B16F1, 25 ug/mL Cerulenin. On the procedure:
(§1) Statistical Analysis, Percents, and Geometric Mean Values Percents. Gating is a tool provided by Cell Quest software and allows for the analysis of a certain population of cells. Gating around both the live and dead cell populations gave a percent of the cell numbers that was in each population. After the gates were drawn, a percent value of dead cells was calculated by taking the number of dead cells divided by the number of total cells and multiplying by one hundred.
(§2) This example illustrates an embodiment of the invention, where multi-drug resistant cancer cells were exposed to compositions of the invention. Analysis of the cells was performed using flow cytometry. The flow cytometry experiments were performed as follows. The cells were harvested, counted, and resuspended as described above. For DNA staining, the cells were washed and resuspended in ice-cold PBS and fixed by the dropwise addition of 95% ethanol. The cells were then incubated for 30 minutes on ice, washed, and resuspended in PBS containing 1% formaldehyde and 0.01% Tween. The cells were incubated with 50 units of DNAse and washed with PBS containing 5% DNAse. The cells were then incubated with anti DNA Fab (166, kind gift of Dr. Susan Wallace, University of Vermont), then washed and stained with a fluorescein conjugated second step anti-mouse immunoglobulin. The cells were then washed and resuspended in PBS/3% BSA/1% formaldehyde. The cells were stained for intracellular H2O2 using 6-carboxy-2′,7′-dichlorodihydrofluorescein diacetate (DCF-DA, Molecular Probes, Eugene, Oreg.). The cells were incubated with 1 mM DCF-DA for 20 minutes, washed twice in PBS containing 5% fetal calf serum and analyzed using flow cytometry. The mitochondrial membrane potential was assessed using MitoTracker Red (CM-H2XROS, Molecular Probes, Eugene, Oreg.). The cells were resuspended in warm (37° C.) PBS containing a final concentration of 0.5 micromolar of dye. The cells were then incubated for 30 minutes, pelleted, and resuspended in prewarmed medium for analysis. The data was acquired on a Coulter Elite Epics or Excel flow cytometer (Coulter, Hialeah, Fla.) and analyzed with CellQuest software, (Becton Dickinson, San Jose, Calif.). […] Each sample population was classified for cell size (forward scatter) and complexity (side scatter), gated on a population of interest and evaluated using 40,000 cells. Each figure describing flow cytometric data represents one of at least four replicate experiments. […]
(§3) The flow cytometry experiments were performed as follows. Once the samples were prepared and transferred into flow cytometric tubes, the samples were analyzed on a Becton/Dickinson Flow Cytometer. […] Statistical analysis, percents, and geometric mean values percents were calculated as described above.

A further series deals with HL60. Kind of series: % death / microscopy of HL60 cells treated or not with cerulenin. The note with it: for % Death: HL60, 25 ug/mL Cerulenin. In kind it is cell-based, human. On the procedure: as §1
(§4) This example illustrates an embodiment of the invention, where multi-drug resistant cancer cells were exposed to compositions of the invention. Analysis of the cells was performed using flow cytometry. The flow cytometry experiments were performed as follows. The cells were harvested, counted, and resuspended as described above. For DNA staining, the cells were washed and resuspended in ice-cold PBS and fixed by the dropwise addition of 95% ethanol. The cells were then incubated for 30 minutes on ice, washed, and resuspended in PBS containing 1% formaldehyde and 0.01% Tween. The cells were incubated with 50 units of DNAse and washed with PBS containing 5% DNAse. […] The cells were incubated with 1 mM DCF-DA for 20 minutes, washed twice in PBS containing 5% fetal calf serum and analyzed using flow cytometry. The mitochondrial membrane potential was assessed using MitoTracker Red (CM-H2XROS, Molecular Probes, Eugene, Oreg.). […] The data was acquired on a Coulter Elite Epics or Excel flow cytometer (Coulter, Hialeah, Fla.) and analyzed with CellQuest software, (Becton Dickinson, San Jose, Calif.). […] Each sample population was classified for cell size (forward scatter) and complexity (side scatter), gated on a population of interest and evaluated using 40,000 cells. […]
(§5) The flow cytometry experiments were performed as follows. Once the samples were prepared and transferred into flow cytometric tubes, the samples were analyzed on a Becton/Dickinson Flow Cytometer. […] Statistical analysis, percents, and geometric mean values percents were calculated as described above. […]

The subject of another series is HL60 MDR. Kind of series: % death / microscopy of HL60 MDR cells treated or not with cerulenin. In kind it is cell-based, human. To be noted: for % Death: 25 ug/mL Cerulenin. On the procedure: as §1, §2, §5
For the next series, the system named is L1210. Kind of series: % death of L1210 cells treated or not with cerulenin (flow cytometry). In kind it is cell-based. To be noted: L1210, 25 ug/mL Cerulenin. Here is the method: as §1
as §4, with “above.” for “above. For DNA staining, the cells were washed and resuspended in ice-cold PBS and fixed by the dropwise addition of 95% ethanol. The cells were then incubated for 30 minutes on ice, washed, and resuspended in PBS containing 1% formaldehyde and 0.01% Tween. The cells were incubated with 50 units of DNAse and washed with PBS containing 5% DNAse.”

The subject of another series is L1210 DDP. Kind of series: % death of L1210 DDP cells treated or not with cerulenin (flow cytometry). In kind it is cell-based. The note with it: for % Death: 25 ug/mL Cerulenin. On the procedure: as §1, §4, §3
Another series has as its system B16F1 melanoma cells. Kind of series: mice injected with B16F1 melanoma cells exposed or not to cerulenin. In kind it is in vivo. The note with it: for tumor observation and activity of mouse: B16F1 10^6 cells treated w/25 ug/ml cerulenin 5.0 hrs before injection. An excerpt: Highly carcinogenic B16F1 melanoma cells were either exposed (“treated”) or not exposed to cerulenin, then injected into male mice.

For series [3] the following is noted: 5-FU that is taken up by the cell; cited from earlier work.

Results on three compounds are retold here after US8293240B2, “Method of treating drug-resistant cancer” (The Regents of the University of Colorado, priority 2004, dated 2012).

For the compound `OC[C@H]1O[C@H](O)CC(O)[C@@H]1O` (stereo partly drawn) [2-deoxy-D-glucose], the “percent of cell deaths” value is 16% in series [1] (HL60 MDR cells after 24 hours), 38% in series [1] (HL60 MDR cells after 48 hours), 46% in series [2] (RD cells after 24 hours) and 63% in series [2] (RD cells after 48 hours). The tumor volume in the series on HL60 MDR tumor (Day 7, daily IP from one week after implantation) is given as 35 mm^3; in the series on HL60 MDR tumor (Day 9, daily IP), 51.56 mm^3; in the series with HL60 MDR tumor (Day 15, daily IP) it was 158.55 mm^3; in the series with HL60 MDR tumor (Day 21, daily IP) it was 1,181.61 mm^3. Also, in the series with HL60 MDR tumor (HL60 MDR in nude mice, 21 day period, single agent), the “effect on tumor growth” value is reported as “increase in tumor growth”.
Regarding `C/C=C/C/C=C/CCC(=O)[C@H]1O[C@H]1C(N)=O` [cerulenin], the “% Death” value in the series on B16F1 (4 Hours (Table 1)) was determined as 0%; in the series with B16F1 (5.0 Hours (Table 2)), 67%; in the series with B16F1 (24 hours (Table 2)), 72%; in the series on B16F1 (.0 Hours (Table 1)), 1%; with HL60 (4 Hours (Table 1)), 4%; with HL60 (.0 Hours (Table 1)) it was 1%. In addition, the “% Death” value came to 9.6% with HL60 MDR (HL60 MDR, 4 Hours (Table 1)); 3% in the series on HL60 MDR (HL60 MDR, .0 Hours (Table 1)); 27% with L1210 (7.0 Hours); 89% in the series with L1210 (24 Hours); 14% in the series with L1210 DDP (7.0 Hours); 92% with L1210 DDP (24 Hours). For the same compound, in the series with HL60 (HL60 cells treated with cerulenin, FIG. 4C), the “cell survival in microscopy images” value is “large numbers of the cells survived”. Further, in the series with HL60 MDR (HL60 MDR cells treated with cerulenin, FIGS. 4E and 4F), the “cell death in microscopy images” value was “large numbers of cell death”. Moreover, the “cell death compared to control and non-multidrug resistant cancer cells” value is “greater amounts of cell death” in the series with HL60 MDR (HL60 MDR, after treatment with cerulenin) and “greater amounts of cell death” with L1210 DDP (after treatment with cerulenin). In addition, the results for the “tumor observation and activity of mouse” value with B16F1 melanoma cells (Day 9), in the series with B16F1 melanoma cells (Day 12) and in the series with B16F1 melanoma cells (Day 13) were “Day 9 no visible sign of tumors - very active”, “Day 12 no visible tumors - very active (FIG. 5D)” and “Day 13 no visible tumors - very active”, respectively. Further, the “development of lethal cancers” value in the series on B16F1 melanoma cells (mice exposed to melanoma cells treated with cerulenin, during the experiment) is “did not develop lethal cancers”.
With `O=c1[nH]cc(F)c(=O)[nH]1` [5-FU, 5-Fluorouracil], the half-life in vivo result in [3] was “about 18 minutes”.
